Consider nine compounds from paper PMC6099940, “Design, Synthesis and Biological Evaluation of Novel Phenylsulfonylurea Derivatives as PI3K/mTOR Dual Inhibitors” (Molecules : A Journal of Synthetic Chemistry and Natural …, 2018).

Each structure is given as a SMILES string.

For data set [1], the system named is A549. The data set can be described thus: In vitro cytotoxicity, MTT assay, A549. The class given is cell-based. The note with it: Homo sapiens, A549 cells, 72 h, average of two separate determinations.
Data set [2] relates to HepG-2. Put plainly: In vitro cytotoxicity, MTT assay, HepG-2. The class given is cell-based. The note with it: Homo sapiens, HepG2, HepG-2 cells, 72 h, average of two separate determinations.
Data set [3] has as its system PC-3. Put plainly: In vitro cytotoxicity, MTT assay, PC-3. The note with it: Homo sapiens, PC-3 cells, 72 h, average of two separate determinations. In kind it is cell-based.
The subject of data set [4] is MCF-7. Put plainly: In vitro cytotoxicity, MTT assay, MCF-7. The class given is cell-based. The note with it: Homo sapiens, MCF7; MCF-7 cells, MTT, 72 h; average of two separate determinations; read-out: IC50 (µM) MCF-7.

With `O=C(Nc1cnc2ccc(Br)cc2c1Nc1ccc(Br)cc1)NS(=O)(=O)c1ccc(Cl)cc1` [21b, N-((6-Bromo-4-((4-bromophenyl)amino)quinolin-3-yl)carbamoyl)-4-chlorobenzenesulfonamide], the melting point lay in the range of 284.1 to 285.4 °C. This compound also had an IC50 in data set [1] of 71.1 ± 1.85 µM. 11.1 ± 1.04 µM corresponded to half-maximal inhibition in data set [2] (IC50). Besides, in data set [3], the IC50 is above 100 µM. Also, the IC50 in data set [4] was 13.8 ± 1.14 µM.

`Cc1ccc(S(=O)(=O)NC(=O)Nc2cnc3ccc(Br)cc3c2Nc2ccc(Br)cc2)cc1` [21c, N-((6-Bromo-4-((4-bromophenyl)amino)quinolin-3-yl)carbamoyl)-4-methylbenzenesulfonamide]: the melting point lay in the range of 279.6 to 280.2 °C. This compound also displayed an IC50 in data set [1] of 22.7 ± 1.35 µM. In data set [2], it took 31.1 ± 1.49 µM to reach half-maximal inhibition (IC50). In addition, in data set [3], the IC50 was above 100 µM. The IC50 in data set [4] is 16.6 ± 1.22 µM.

`CC(C)(C)c1ccc(S(=O)(=O)NC(=O)Nc2cnc3ccc(Br)cc3c2Nc2ccc(Br)cc2)cc1` [21d, N-((6-Bromo-4-((4-bromophenyl)amino)quinolin-3-yl)carbamoyl)-4-(tert-butyl)benzenesulfonamide] registered a melting point of 259.4 to 260.3 °C. The IC50 in data set [1] worked out at 16.2 ± 1.2 µM. In addition, in data set [2], the IC50 amounted to 17 ± 1.22 µM. In data set [3], this compound returned an IC50 above 100 µM. Also, the IC50 in data set [4] was 52.7 ± 1.72 µM.

In turn, `O=C(Nc1cnc2ccc(Br)cc2c1Nc1ccc(F)c(Cl)c1)NS(=O)(=O)c1ccc(F)cc1` [22a, N-((6-Bromo-4-((3-chloro-4-fluorophenyl)amino)quinolin-3-yl)carbamoyl)-4-fluorobenzenesulfonamide] showed a melting point of 295.1 to 296.3 °C. In data set [1], this compound displayed an IC50 of 12 ± 0.91 µM. Besides, half-maximal inhibition in data set [2] (IC50) was put at 19.63 ± 0.18 µM. In addition, in data set [3], the IC50 stood at 52.5 ± 1.03 µM. Besides, in data set [4], the IC50 was determined as 22.8 ± 1.35 µM.

In turn, `O=C(Nc1cnc2ccc(Br)cc2c1Nc1ccc(F)c(Cl)c1)NS(=O)(=O)c1ccc(Cl)cc1` [22b, N-((6-Bromo-4-((3-chloro-4-fluorophenyl)amino)quinolin-3-yl)carbamoyl)-4-chlorobenzenesulfonamide] registered a melting point of 282.3 to 283.7 °C. This compound also yielded an IC50 in data set [1] above 100 µM. This compound also had a half-maximal inhibitory concentration (IC50) in data set [2] of 6.44 ± 0.89 µM. This compound gave an IC50 in data set [3] of 17.7 ± 0.95 µM. Further, the IC50 in data set [4] came to 6.84 ± 0.83 µM.

For `Cc1ccc(S(=O)(=O)NC(=O)Nc2cnc3ccc(Br)cc3c2Nc2ccc(F)c(Cl)c2)cc1` [22c, N-((6-Bromo-4-((3-chloro-4-fluorophenyl)amino)quinolin-3-yl)carbamoyl)-4-methylbenzenesulfonamide], the melting point lay in the range of 278.7 to 279.9 °C. In data set [1], the IC50 is above 100 µM. The compound also returned an IC50 in data set [2] of 11.3 ± 0.84 µM. Besides, the midpoint of inhibition in data set [3], the IC50, lay at 16.7 ± 0.88 µM. Also, the IC50 in data set [4] is 16.8 ± 1.22 µM.

With `CC(C)(C)c1ccc(S(=O)(=O)NC(=O)Nc2cnc3ccc(Br)cc3c2Nc2ccc(F)c(Cl)c2)cc1` [22d, N-((6-Bromo-4-((3-chloro-4-fluorophenyl)amino)quinolin-3-yl)carbamoyl)-4-(tert-butyl)benzenesulfonamide], the melting point was 290.1 to 291.6 °C. The IC50 in data set [1] was 22.4 ± 1.21 µM. In data set [2], this compound gave an IC50 of 28.4 ± 0.89 µM. The compound also came in with an IC50 in data set [3] of 29.3 ± 2.23 µM. Also, the IC50 in data set [4] came to 46.3 ± 1.67 µM.

Compound `COc1ccc(Nc2c(NC(=O)NS(=O)(=O)c3ccc(Cl)cc3)c(C)nc3ccc(OC)cc23)cc1` [23a, 4-Chloro-N-((6-methoxy-4-((4-methoxyphenyl)amino)-2-methylquinolin-3-yl)carbamoyl)benzenesulfonamide] returned a melting point of 290.8 to 291.2 °C. The same compound showed an IC50 in data set [1] of 39.8 ± 1.59 µM. For the same compound, in data set [2], half-maximal inhibition (IC50) was put at 16 ± 1.1 µM. For the same compound, the IC50 in data set [3] is above 100 µM. For the same compound, in data set [4], the IC50 worked out at 6.3 ± 0.79 µM.

The compound `COc1ccc2nc(C)c(NC(=O)NS(=O)(=O)c3ccc(F)cc3)c(Nc3ccc(Br)cc3)c2c1` [23c, N-((4-((4-Bromophenyl)amino)-6-methoxy-2-methylquinolin-3-yl)carbamoyl)-4-fluorobenzenesulfonamide] gave a melting point of 356.1 to 357.3 °C. Inhibition in data set [1] was half-maximal at 13 ± 0.84 µM (IC50). The IC50 in data set [2] came out at 32.1 ± 1.12 µM. The compound further displayed an IC50 in data set [3] of 39.8 ± 1.25 µM. Also, the IC50 in data set [4] was determined as 25.4 ± 1.43 µM.
